Counter-ions that a name gives are not always drawn. Marks after values point to notes of the source that are not given here.
Assays:
[1] = system: acute lung injury in mice induced by oleic acid; assay: acute lung injury test in mouse (oleic acid-induced, histological grading of lung pathology); type: in vivo, KM mice
Procedure: KM mice, weighing 18-22g, with all 66 being males, were used and randomly grouped into a normal control group, a model control group, a Formula I compound group (40 mg/kg, in terms of free base), a Formula V compound group (40 mg/kg, in terms of free base), a Comparative Example group (40 mg/kg, in terms of free base), and an ambroxol hydrochloride group (40 mg/kg, in terms of free base), 11 animals in each group, and each group was administered intravenously (dissolved in normal saline by adjusting pH or directly dissolved in normal saline) once a day for 4 times, while the model control group and the normal control group were given an equivalent amount of normal saline. 30 minutes after the last administration, except for the normal control group, all other mice were administered 300 mg/kg oleic acid intravenously (prepared into the desired concentration with sterile saline containing 0.1% […] immediately before use), and the vehicle control group was given an equivalent volume of 0.1% BSA saline. The mice were sacrificed 4 hours after the last administration, and the right lobes of the lungs were removed and fixed in a 10% formaldehyde solution. After dehydration, embedding in paraffin, dissection, and staining with HE, they were observed under a microscope for pathological changes of the lung tissues. Here, the medicament used for the Comparative Example group was the 4-[(2-amino-3,5-dibromobenzyl)amino]adamantan-1-ol hydrochloride (racemic) prepared in Comparative Example 1. Table 1. Criteria for histological grading of lung injury
The above indicators are multiplied by different weighting numbers depending on the significance of the pathology (alveolar wall thickening × 1, inflammatory cell infiltration × 1, lung tissue necrosis × 3), and finally added up to obtain an overall lung pathology score. Table 2. Test results of lung pathologies of each group

[2] = system: ammonia-induced coughing response in mice; assay: cough response of mice induced by ammonia water; type: in vivo, KM mice
Procedure: 50 KM mice, weighing 18-22g, of both sexes were used and randomly divided into 5 groups, a model control group, a Formula I compound group (15 mg/kg, in terms of free base), a Formula V compound group (15 mg/kg, in terms of free base), a Comparative Example group (15 mg/kg, in terms of free base), and an ambroxol hydrochloride group (15 mg/kg, in terms of free base), 10 animals in each group, and were administered intravenously (dissolved in normal saline by adjusting pH or directly dissolved in normal saline). 30 minutes after the administration, the mice were put in an inverted beaker with a volume of 500ml and a cotton ball inside. Timing was started once 0.2ml of concentrated ammonia/mouse was added onto the cotton ball. The number of coughs of each animal within 3 minutes was observed and recorded. Here, the medicament used for the Comparative Example group was the 4-[(2-amino-3,5-dibromobenzyl)amino]adamantan-1-ol hydrochloride (racemic) prepared in Comparative Example 1. Table 3. Effect on ammonia-induced coughing response in mice (x ± s, n=10)

[3] = system: expectoration amount by rat capillary tube expectoration; assay: rat capillary sputum excretion test; type: in vivo, SD rats; details: length of liquid in capillary tube within 90 minutes; 15 mg/kg in terms of free base via tail vein, 30 minutes after administration; n=10; vehicle control 22.7±4.41; hydrochloride, 15 mg/kg
Procedure: 180-220g SD rats of both sexes were used and divided into random groups, with 10 rats in each group, namely a vehicle control group, a Formula I compound group (15 mg/kg, in terms of free base), a Formula V compound group (15 mg/kg, in terms of free base), a Comparative Example group (15 mg/kg, in terms of free base) and ambroxol hydrochloride (15 mg/kg, in terms of free base). The rats were fasted and restrained from water for 12 hours before testing the amount of sputum excretion, and administered the respective medicaments via the tail vein (dissolved in normal saline by adjusting pH or directly dissolved in normal saline). 30 minutes after the administration, they were anesthetized by intraperitoneally injecting 1g/kg of a urethane solution in saline, fixed in supine position, and the trachea was separated after cutting through neck skin. A small hole was pierced by using a syringe needle between the two cartilage rings on the lower edge of the thyroid cartilage, and a capillary tube (with an inner diameter of 0.8mm, and a length of 10cm) was inserted centripetally into the trachea. Sputum was collected while adjusting the angle between the capillary tube and the trachea, and the total number of the length of liquids in the capillary tube (mm) was used to evaluate the expectoration effect. The amount of expectoration of the rats within 90 minutes was recorded. Here, the medicament used for the Comparative Example group was the 4-[(2-amino-3,5-dibromobenzyl)amino]adamantan-1-ol hydrochloride (racemic) prepared in Comparative Example 1. Table 4. Results of the effect on the expectoration amount by rat capillary tube expectoration

[4] = system: tracheal phenol red secretion in mice; assay: phenol red expectoration test in mice; type: in vivo; details: colorimetric measurement at 546nm; 30 mg/kg in terms of free base via tail vein 2 times in a row; x ± s, n=12; control 0.095±0.022; hydrochloride
Procedure: Experimental method: 60 mice of both sexes were used and randomly divided into a control (normal saline) group, a Formula I compound group (30 mg/kg, in terms of free base), a Formula V compound group (30 mg/kg, in terms of free base), a Comparative Example group (30 mg/kg, in terms of free base) and ambroxol hydrochloride (30 mg/kg, in terms of free base), 12 rats in each group; the respective medicaments were administered via the tail vein (dissolved in normal saline by adjusting pH or directly dissolved in normal saline) 2 times in a row. 15 minutes after the last administration to the mice, a 5% phenol red solution in normal saline (0.5g/kg) was subcutaneously injected. After 30 minutes, the mice were sacrificed and a section of the trachea was cut from below the thyroid cartilage to the trachea branch. The section was placed in a test tube containing 1 mL of normal saline, shaken and soaked for 30 minutes, and then centrifuged for 10 minutes (3000 r/min). The supernatant was transferred to another test tube, 0.1 mL of 1M NaOH solution was added, and shaken uniformly for a colorimetric measurement at 546nm. The effects of each group on the tracheal phenol red secretion in mice were statistically compared, and the experimental results obtained are shown in Table 5 below. Here, the medicament used for the Comparative Example group was the 4-[(2-amino-3,5-dibromobenzyl)amino]adamantan-1-ol hydrochloride (racemic) prepared in Comparative Example 1. Table 5. Effects on tracheal phenol red secretion in mice (x ± s)

[5] = number of mice (11 per group) at score 3 (Moderate), 40 mg/kg in terms of free base, intravenously once a day for 4 times, oleic acid 300 mg/kg i.v.
[6] = number of mice (11 per group) at score 4 (Severe), 40 mg/kg in terms of free base, intravenously once a day for 4 times, oleic acid 300 mg/kg i.v.

## Nc1c(Br)cc(Br)cc1CN[C@@H]1[C@@H]2C[C@@H]3C[C@H]1C[C@@](O)(C3)C2 [Compound of Formula V, trans-4-[(2-amino-3,5-dibromobenzyl)amino]adamantan-1-ol hydrochloride]
[1]; group sum, weighted (alveolar wall thickening x 1, inflammatory cell infiltration x 1, lung tissue necrosis x 3), 40 mg/kg free base i.v. once a day for 4 times, model control 81, normal control 21, hydrochloride, 40 mg/kg
  Overall lung pathology score: 24^**▲
[1]; number of mice (11 per group) at score 0 (No pathological change), 40 mg/kg in terms of free base, intravenously once a day for 4 times, oleic acid 300 mg/kg i.v.
  Alveolar wall thickening Level 0: 1
[1]; number of mice (11 per group) at score 0 (No pathological change), 40 mg/kg in terms of free base, intravenously once a day for 4 times, oleic acid 300 mg/kg i.v., hydrochloride
  Inflammatory cell infiltration Level 0: 2
[1]; number of mice (11 per group) at score 1 (Occasional), 40 mg/kg in terms of free base, intravenously once a day for 4 times, oleic acid 300 mg/kg i.v.
  Lung tissue necrosis Level 1: 0
[1]; number of mice (11 per group) at score 2 (Mild), 40 mg/kg in terms of free base, intravenously once a day for 4 times, oleic acid 300 mg/kg i.v.
  Lung tissue necrosis Level 2: 0
[1]; number of mice (11 per group) at score 2 (Mild), 40 mg/kg in terms of free base, intravenously once a day for 4 times, oleic acid 300 mg/kg i.v., hydrochloride
  Inflammatory cell infiltration Level 2: 2
[1]; [5]
  Inflammatory cell infiltration Level 3: 0
  Lung tissue necrosis Level 3: 0
[1]; number of mice (11 per group) at score 3 (Moderate), 40 mg/kg in terms of free base, intravenously once a day for 4 times, oleic acid 300 mg/kg i.v., hydrochloride
  Alveolar wall thickening Level 3: 0
[1]; [6]
  Alveolar wall thickening Level 4: 0
  Inflammatory cell infiltration Level 4: 0
  Lung tissue necrosis Level 4: 0
[2]; compared with the model control group (P<0.05 or P<0.01), 15 mg/kg free base i.v.
  reduction of the number of coughs: significantly reduce the number of coughs
[2]; within 3 minutes after concentrated ammonia, 15 mg/kg in terms of free base i.v., 30 minutes after administration, x ± s, n=10, model control 41.7±8.76, hydrochloride, 15 mg/kg
  Number of coughs (times): 19.5±6.50 times
[3]
  Expectoration amount in 90min (mm): 45.1±5.39 mm
[4]
  Phenol red secretion (OD number): 0.278±0.054 OD number

Reference: patent EP4310070A1, “USE OF TRANS AMANTADINE DERIVATIVE OR SALT THEREOF” (Chengdu Shibeikang Biomedical Technology Co., Ltd., priority 2021, dated 2022)
